Experiment [1] deals with H4 cells overexpressing full-length alpha-synuclein. In words: Cellular model of aggregated alpha-synuclein-dependent toxicity, full-length alpha-synuclein H4 cells. It is filed as cell-based. Conditions: 10 μM compound, 100 μM FeCl3, 0.75% DMSO, 48 h; for inhibition at 10 µM: read-out: Change in fraction of condensed nuclei (rel. to DMSO control) [%]. How it is done:
(§1) To identify potential therapeutically useful effects, compounds were tested in two cellular models of aggregated alpha-synuclein-dependent toxicity in H4 cells. These cellular models allow for the inducible overexpression of alpha-synuclein hemi-Venus fusion constructs (V1S+SV2) or full-length alpha-synuclein (the model is described in detail in: Bartels M, Weckbecker D, Kuhn P H, Ryazanov S, Leonov A, Griesinger C, Lichtenthaler S F, Bötzel K, Giese A: Iron-mediated aggregation and toxicity in a novel neuronal cell culture model with inducible alpha-synuclein expression, Sci. Rep. 2019 Jun. 24; 9(1):9100). Moreover, addition of DMSO and FeCl3 promotes the aggregation of alpha-synuclein which is associated with an increase in cytotoxicity. The cell culture assay uses these effects by determining the change in the number of cells and the change in the percentage of condensed nuclei, which is indicative of apoptosis, in order to obtain information on which compounds show the most promising effects and thus might be therapeutically useful.
(§2) In these experiments, cells were incubated with 100 μM FeCl3 and 0.75% DMSO in the presence of 10 μM anle138c as a positive control, compounds 1 to 19 (10 μM), or DMSO as a negative control. After 48 h, the cells were imaged with an OPERA high-throughput imaging system and analyzed using Acapella software (Perkin Elmer). […] A reduction in the fraction of condensed nuclei (in the absence of a strong reduction in cell number) is indicative of a beneficial therapeutic effect.

For experiment [2], the system named is H4 cells overexpressing alpha-synuclein hemi-Venus fusion constructs (V1S+SV2). In words: Cellular model of aggregated alpha-synuclein-dependent toxicity, V1S+SV2 H4 cells. It is filed as cell-based. As to conditions: 10 μM compound, 100 μM FeCl3, 0.75% DMSO, 48 h; for inhibition at 10 µM: read-out: Change in fraction of condensed nuclei (rel. to DMSO control) [%]. How it is done: as §1, §2

The target in experiment [3] is T1, alpha-synuclein (sonicated fibrils) (Homo sapiens, UniProt P37840).
T1 construct: made in house; host or cells: E. coli
The experiment can be described thus: Modified competition binding assay, protocol 3b, reference ligand [3H]-compound 2. Conditions: Table 5, reference ligand [3H]-compound 2 (1 nM). How it is done:
Alpha-synuclein and tau46 were purified from E. coli according to established protocols (Nuscher B, et al., J. Biol. Chem., 2004; 279(21):21966-75), Aβ1-42 was obtained from rPeptide, Watkinsville, Ga., USA. Fibrils were prepared by aggregation of recombinant protein via constant agitation. In detail, 70 μM of alpha-synuclein mixed with 100 mM NaCl in 50 mM Tris, pH 7.0+0.02% NaN3 were incubated at 1,400 rpm, 37° C. for 96 h. 10 μM of tau46 were incubated with 0.03 mg/ml heparin in 50 mM Tris, pH=7.0 at 1,000 rpm, 37° C. for 72 h. Aβ1-42 was solved in 20 mM NaPi, pH=8.0+0.2 mM EDTA+0.02% NaN3 (Deeg A A, et al., Biochim. Biophys. Acta, 2015; 1850(9): 1884-90; Goedert M, et al. Nature, 1996; 383(6600): 550-3).
For competition binding experiments, a fixed concentration of recombinant αSYN fibrils (sonicated, 15 nM/well) was incubated with 1 nM [^3H]-compound 1 or [3H]-compound 2 and decreasing concentrations of a serial dilution of non-labeled competitor (serial dilution 1:4 or 1:3.5 or 1:3 providing the concentration ranges of non-labeled competitor 1 μM-[…] 1 μM-4 nM or 1 μM-[…], respectively) in 30 mM Tris-HCl, 10% ethanol, 0.05% Tween20, pH 7.4 in a total volume of 200 μL/well. Plates were incubated for 4.5 hours at RT covered by removable sealing tape (PerkinElmer, Waltham, Mass., USA).
Filtration and readout were performed as described for saturation binding assays. [^3H]-labeled ligand binding [in CMP] was plotted against increasing competitor concentrations and data points were fitted using non-linear regression analysis to calculate the IC50 and Ki values (GraphPad Software, Inc., Version 7.03, La Jolla (Calif.), USA). In the competition binding assay with sonicated recombinant αSYN fibrils, the calculation of Ki values was done based on KD values of 0.6 nM and 0.2 nM for compound 1 and compound 2, respectively.
The fibril competition assay provides Ki values. Ki is a quantitative measure that represents the concentration of the non-radioactive tested compound (competitor ligand) required to replace 50% of a reference compound, in this case [H]-compound 1 (1 nM) or [H]-compound 2 (1 nM), which is bound to the target structures (1 nM), in our case recombinant alpha-synuclein and tau46 fibrils. This assay is suitable for a screening of non-radioactive ligands.

Consider `Cn1nc(-c2ccnc(Br)c2)cc1-c1ccc2c(c1)OCO2` [Compound 19, 4-[5-(1,3-benzodioxol-5-yl)-1-methyl-1H-pyrazol-3-yl]-2-bromopyridine], for which the “Change in cell number (rel. to DMSO control) [%]” value (shortened to “Change in cell number … [%]”) is −30.3% in experiment [1] and −5.7% in experiment [2]. The inhibition at 10 µM was 13.2% in experiment [1] and -3.2% in experiment [2].
Taken in the same sequence, the figures for `Nc1ccc(-c2cc(-c3ccnc(Br)c3)[nH]n2)cc1` [Compound 7, 4-[5-(2-bromopyridin-4-yl)-1H-pyrazol-3-yl]aniline] were −37.8%, −30.8%, 62.5% and 46.1%.
`Fc1cncc(-c2cc(-c3ccc4c(c3)OCO4)n[nH]2)c1` [Compound 13, 3-[3-(1,3-benzodioxol-5-yl)-1H-pyrazol-5-yl]-5-fluoropyridine]: in experiment [1], the “Change in cell number … [%]” value is −18.1% and the inhibition at 10 µM amounted to 55.5%. Moreover, in experiment [2], the “Change in cell number … [%]” value is recorded as −6.1% and the inhibition at 10 µM is -46%. In addition, the Ki in experiment [3] was determined as 189 nM.
Regarding `CCNc1ccc(-c2cc(-c3ccnc(Br)c3)[nH]n2)cc1` [Compound 23, 4-[5-(2-bromopyridin-4-yl)-1H-pyrazol-3-yl]-N-ethylaniline], the Ki in experiment [3] amounted to 0.5 nM.
Still for that read-out and setting: the same measure for `Fc1ccnc(-c2cc(-c3ccc4c(c3)OCO4)n[nH]2)c1` [Compound 54, 2-[3-(1,3-benzodioxol-5-yl)-1H-pyrazol-5-yl]-4-fluoropyridine]: 8.4 nM.
As to `Fc1cccc(-c2cc(-c3ccc4c(c3)OCO4)n[nH]2)n1` [Compound 11, 2-[3-(1,3-benzodioxol-5-yl)-1H-pyrazol-5-yl]-6-fluoropyridine], in experiment [1], the “Change in cell number … [%]” value is −20.0% and the inhibition at 10 µM is -13.7%. For the same molecule, in experiment [2], the “Change in cell number … [%]” value was −17.4% and the inhibition at 10 µM is -123%. The Ki in experiment [3] worked out at 7.4 nM.
On to `FCCNc1ccc(-c2cc(-c3ccnc(Br)c3)[nH]n2)cc1` [Compound 25, 4-[5-(2-bromopyridin-4-yl)-1H-pyrazol-3-yl]-N-(2-fluoroethyl)aniline], for which the Ki in experiment [3] came out at 0.7 nM.
The same measure, in the same setting: the same measure for `FCCN1CCN(c2ccc(-c3cc(-c4ccnc(Cl)c4)[nH]n3)cc2)CC1` [Compound 50, 1-{4-[5-(2-chloropyridin-4-yl)-1H-pyrazol-3-yl]phenyl}-4-(2-fluoroethyl)piperazine]: 0.9 nM.
Still for that read-out and setting: the same measure for `CNc1ccc(-c2cc(-c3cnnc(Cl)c3)[nH]n2)cc1` [Compound 39, 4-[5-(6-chloropyridazin-4-yl)-1H-pyrazol-3-yl]-N-methylaniline]: 4.2 nM; for `Fc1cc(-c2cc(-c3ccc(N4CCOCC4)cc3)n[nH]2)ccn1` [Compound 27, 4-{4-[5-(2-fluoropyridin-4-yl)-1H-pyrazol-3-yl]phenyl}morpholine]: 1.3 nM.
With `Clc1cc(-c2cc(-c3ccc4c(c3)OCO4)n[nH]2)ccn1` [Compound 14, 4-[3-(1,3-benzodioxol-5-yl)-1H-pyrazol-5-yl]-2-chloropyridine], in experiment [1], the “Change in cell number … [%]” value was −32.0% and the inhibition at 10 µM came out at 47.3%. In addition, in experiment [2], the “Change in cell number … [%]” value is reported as −21.9% and the inhibition at 10 µM is -61%. For the same molecule, the Ki in experiment [3] turned out to be 1.3 nM.
With `Clc1cc(-c2nc(-c3ccc(N4CCCC4)cc3)c[nH]2)ccn1` [Compound 35, 2-chloro-4-{4-[4-(pyrrolidin-1-yl)phenyl]-1H-imidazol-2-yl}pyridine], the Ki in experiment [3] amounted to 168 nM.
Still for that read-out and setting: for `CN(C)c1ccc(-c2c[nH]c(-c3ccnc(Br)c3)n2)cc1` [Compound 31, 4-[2-(2-bromopyridin-4-yl)-1H-imidazol-4-yl]-N,N-dimethylaniline] the value was 13 nM; for `CNc1ccc(-c2cc(-c3cncc(Cl)n3)[nH]n2)cc1` [Compound 36, 4-[5-(6-chloropyrazin-2-yl)-1H-pyrazol-3-yl]-N-methylaniline], 12 nM.
Turning to `Brc1cc(-c2c[nH]c(-c3ccc4c(c3)OCO4)n2)ccn1` [Compound 29, 4-[2-(1,3-benzodioxol-5-yl)-1H-imidazol-4-yl]-2-bromopyridine], the Ki in experiment [3] came to 6.3 nM.
The same measure, in the same setting: for `Brc1cc(-c2nc(-c3ccc4c(c3)OCO4)n[nH]2)ccn1` [Compound 30, 4-[3-(1,3-benzodioxol-5-yl)-1H-1,2,4-triazol-5-yl]-2-bromopyridine] the value was 12 nM; for `Brc1cccc(-c2cc(-c3cnc4c(c3)OCO4)n[nH]2)c1` [Compound 34, 6-[5-(3-bromophenyl)-1H-pyrazol-3-yl]-1,3-dioxolo[4,5-b]pyridine], 41 nM; for `CNc1ccc(-c2cc(-c3cccc(Cl)n3)[nH]n2)cc1` [Compound 41, 4-[5-(6-chloropyridin-2-yl)-1H-pyrazol-3-yl]-N-methylaniline], 14 nM.
Take `CN(C)c1ccc(-c2nc(-c3ccnc(Br)c3)c[nH]2)cc1` [Compound 45, 4-[4-(2-bromopyridin-4-yl)-1H-imidazol-2-yl]-N,N-dimethylaniline]: the Ki in experiment [3] was determined as 0.2 nM.
Still for that read-out and setting: for `[2H]C([2H])([2H])Nc1ccc(-c2cc(-c3ccnc(Br)c3)[nH]n2)cc1` [Compound 21, 4-[5-(2-bromopyridin-4-yl)-1H-pyrazol-3-yl]-N-(^2H3)methylaniline] the value was 0.3 nM; for `CNc1ccc(-c2cc(-c3ccnc(Cl)n3)[nH]n2)cc1` [Compound 40, 4-[5-(2-chloropyrimidin-4-yl)-1H-pyrazol-3-yl]-N-methylaniline], 3.9 nM.
